Reference: ChEMBL document CHEMBL3286308, “Potent and orally efficacious bisthiazole-based histone deacetylase inhibitors” (ACS Med Chem Lett, 2014)

Target: Histone deacetylase 1 (Homo sapiens, UniProt Q13547)
Sequence (Q13547 whole entry): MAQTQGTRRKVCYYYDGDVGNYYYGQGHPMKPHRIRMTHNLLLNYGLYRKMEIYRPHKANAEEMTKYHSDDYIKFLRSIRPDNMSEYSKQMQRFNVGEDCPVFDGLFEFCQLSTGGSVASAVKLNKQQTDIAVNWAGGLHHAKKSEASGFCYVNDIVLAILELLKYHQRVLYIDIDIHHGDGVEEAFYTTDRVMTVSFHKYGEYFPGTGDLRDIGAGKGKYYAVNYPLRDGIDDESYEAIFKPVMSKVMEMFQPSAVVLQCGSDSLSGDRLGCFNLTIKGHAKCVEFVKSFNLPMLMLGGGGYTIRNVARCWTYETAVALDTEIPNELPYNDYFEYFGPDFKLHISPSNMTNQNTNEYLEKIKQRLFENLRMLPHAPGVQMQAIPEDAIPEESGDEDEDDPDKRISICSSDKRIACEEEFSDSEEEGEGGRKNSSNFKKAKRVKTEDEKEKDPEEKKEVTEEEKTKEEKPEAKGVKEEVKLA

Row | IC50 [µM] | SMILES
1 | 2 | CCCCCCCC(=O)SCC/C=C/[C@@H]1CC(=O)NCc2nc(cs2)-c2nc(cs2)C(=O)N[C@@H](C(C)C)C(=O)O1
2 | 13.9 | Cc1nc(C2=N[C@](C)(C(=O)N[C@H](C(=O)OC/C=C/CCS)C(C)C)CS2)cs1
3 | 16.8 | CC(C)[C@H](NC(=O)[C@]1(C)CSC(c2cscn2)=N1)C(=O)OC/C=C/CCS

Row | SMILES | IC50 [µM]
4 | CCCCCCCC(=O)SCC/C=C/[C@@H]1CC(=O)NCc2nc(cs2)C2=N[C@@](C)(CS2)C(=O)N[C@@H](C(C)C)C(=O)O1 [LARGAZOLE] | 0.0137
